Consider one compound from ChEMBL document CHEMBL3091293, “The synthesis and biodistribution of [(11)C]metformin as a PET probe to study hepatobiliary transport mediated by the multi-drug and toxin extrusion transporter 1 (MATE1) in vivo” (Bioorg Med Chem, 2013).

Common to all, as to format: ADME, organism-based
For data set [1], the system named is Mus musculus. Nature of the data set: Biodistribution in large intestine wall of ddY mouse at 5.6 +/- 2.1 MBq, iv measured per gram of tissue at 45 mins by gamma-ray counting analysis. The conditions noted are these: in vivo, 0.75 h.
The test system of data set [2] is Mus musculus. The experiment in a line: Biodistribution in heart wall of ddY mouse at 5.6 +/- 2.1 MBq, iv measured per gram of tissue at 35 mins by gamma-ray counting analysis. The conditions noted are these: in vivo.
Data set [3] has as its system Liver. Nature of the data set: Biodistribution in liver of ddY mouse at 14.6 +/- 2.1 MBq, iv measured per gram of tissue at 14 mins by PET image analysis. To be noted: in vivo.
For data set [4], the system named is Pancreas. The experiment in a line: Biodistribution in pancreas of ddY mouse at 5.6 +/- 2.1 MBq, iv measured per gram of tissue at 15 mins by gamma-ray counting analysis. To be noted: in vivo, 0.25 h.
A short description of data set [5]: Drug uptake in urinary bladder of ddY mouse at 127 +/- 35 MBq/kg, iv measured up to 4.5 mins by microPET image analysis. The conditions noted are these: in vivo, 0.075 h.
Data set [6] relates to Liver. Nature of the data set: Drug uptake in liver of ddY mouse at 127 +/- 35 MBq/kg, iv measured up to 6 to 7 mins by microPET image analysis in presence of MATE1 inhibitor pyrimethamine. To be noted: in vivo.
In data set [7] the test system is Pancreas. Nature of the data set: Biodistribution in pancreas of ddY mouse at 5.6 +/- 2.1 MBq, iv measured per gram of tissue at 60 mins by gamma-ray counting analysis. To be noted: in vivo, 1 h.
Data set [8] relates to Liver. The experiment in a line: Drug uptake in liver of ddY mouse at 127 +/- 35 MBq/kg, iv after 2 mins by microPET image analysis. To be noted: in vivo.
In data set [9] the test system is Spleen. The experiment in a line: Biodistribution in spleen of ddY mouse at 5.6 +/- 2.1 MBq, iv measured per gram of tissue at 30 mins by gamma-ray counting analysis. The conditions noted are these: in vivo, 0.5 h.
Data set [10] relates to Liver. The experiment in a line: Biodistribution in liver of ddY mouse at 5.6 +/- 2.1 MBq, iv measured per gram of tissue at 90 mins by gamma-ray counting analysis. To be noted: in vivo, 1.5 h.
Data set [11] deals with Liver. Nature of the data set: Biodistribution in liver of ddY mouse at 5.6 +/- 2.1 MBq, iv measured per gram of tissue at 60 mins by gamma-ray counting analysis. The conditions noted are these: in vivo, 1 h.
Data set [12] relates to Spleen. The experiment in a line: Biodistribution in spleen of ddY mouse at 5.6 +/- 2.1 MBq, iv measured per gram of tissue at 45 mins by gamma-ray counting analysis. The conditions noted are these: in vivo, 0.75 h.
The subject of data set [13] is Mus musculus. Nature of the data set: Biodistribution in stomach wall of ddY mouse at 5.6 +/- 2.1 MBq, iv measured per gram of tissue at 45 mins by gamma-ray counting analysis. The conditions noted are these: in vivo, 0.75 h.
The subject of data set [14] is Mus musculus. The experiment in a line: Biodistribution in urinary bladder/urine of ddY mouse at 5.6 +/- 2.1 MBq, iv measured per gram of tissue at 35 mins by gamma-ray counting analysis. To be noted: in vivo.
The subject of data set [15] is Mus musculus. Nature of the data set: Biodistribution in stomach wall of ddY mouse at 5.6 +/- 2.1 MBq, iv measured per gram of tissue at 90 mins by gamma-ray counting analysis. To be noted: in vivo, 1.5 h.
The subject of data set [16] is Kidney. Nature of the data set: Biodistribution in kidney of ddY mouse at 5.6 +/- 2.1 MBq, iv measured per gram of tissue at 15 mins by gamma-ray counting analysis. The conditions noted are these: in vivo, 0.25 h.
For data set [17], the system named is Thyroid gland. Nature of the data set: Biodistribution in thyroid of ddY mouse at 5.6 +/- 2.1 MBq, iv measured per gram of tissue at 90 mins by gamma-ray counting analysis. The conditions noted are these: in vivo, 1.5 h.
For data set [18], the system named is Mus musculus. Nature of the data set: Biodistribution in urinary bladder of ddY mouse at 14.6 +/- 2.1 MBq, iv measured per gram of tissue at 5 mins by PET image analysis. The conditions noted are these: in vivo.
Data set [19] relates to Mus musculus. The experiment in a line: Biodistribution in large intestine wall of ddY mouse at 5.6 +/- 2.1 MBq, iv measured per gram of tissue at 90 mins by gamma-ray counting analysis. To be noted: in vivo, 1.5 h.

Take `CN([11CH3])C(=N)NC(=N)N`: the Drug uptake in data set [1] was 0.208 %ID; in [2], 0.049 %ID; in data set [3], 1.796 %ID; in data set [4] it was 0.295 %ID; in data set [5], “Active”; in [6], “Active”. For the same compound, the Drug uptake is recorded as 0.281 %ID in [7]; “Not Active” in data set [8]; 0.162 %ID in [9]; 1.288 %ID in data set [10]; 1.631 %ID in [11]; 0.123 %ID in data set [12]. Further, the Drug uptake in data set [13] is given as 0.08 %ID; in data set [14], 74.695 %ID; in [15], 0.14 %ID; in [16], 1.181 %ID; in data set [17], 0.013 %ID; in data set [18] it was 37.19 %ID. In addition, in data set [19], the Drug uptake amounted to 0.24 %ID.
